{"source": "patent US4652549A", "about": "“Cardiac anti-hypertrophic agents” (Merck & Co., Inc., priority 1985, dated 1987)", "system": "cardiac hypertrophy", "test": "7-day continuous infusion, reversing cardiac hypertrophy (heart weight)", "type": "in vivo", "settings": "30 pmole per kg per minute", "text": "Heart Weight (grams H2 O per 100 grams tissue)", "data": [{"substance": "Arg-Arg-Ser-Ser-Cys-Phe-Gly-Gly-Arg-Ile-Asp-Arg-Ile-Gly-Ala-Gln-Ser-Gly-Leu-Gly-Cys-Asn-Ser-Phe-Arg-Tyr (RRSSCFGGRIDRIGAQSGLGCNSFRY; printed: Arg-Arg-Ser-Ser-Cys-Phe-Gly-Gly-Arg-Ile-Asp-Arg-Ile-Gly-Ala-Gln-Ser-Gly-Leu-Gly-Cys-Asn-Ser-Phe-Arg-Tyr) [PEPTIDE OF EXAMPLE 5]", "values": [{"measurement": "Heart Weight", "setting": "NORMAL group, n = 22", "value": "0.45 + 0.02 grams H2 O per 100 grams tissu"}, {"measurement": "Heart Weight", "setting": "first group (heading not given, presumably hypertrophic animals), n = 23, statistically significant at p less than 0.05", "value": "0.70 + 0.03 grams H2 O per 100 grams tissu"}]}]}
